Test results from patent publication US20240390306A1, “Monohydrate Salt of Denatonium Acetate” (priority 2021, published 2024).
“Also recorded” adds a separate entry of the source. Where two headings read alike, the source gives them in different places.

Legend:
[1] = Storage under stress conditions (temperature / relative humidity); format: physicochemical
Description: It also lost mass when taken to relative humidity levels of less than 10%.
It also loses mass when taken to relative humidity levels of less than 10%.
It was then removed from the instrument and a portion immediately analyzed by XRPD.

[2] = Polymorph screen: solvent addition to ca. 10 mg DAM, initial observation (solubility); format: physicochemical
Protocol: The resultant samples were refrigerated (solutions) or shaken at room temperature (suspensions) for several days. The samples that had initially formed solutions were examined for signs of solid formation after refrigeration. If solid material had formed, it was analyzed by XRPD. If no solid had formed the vials were uncapped and the solutions evaporated, and solid residues analyzed by XRPD. For samples which had initially formed suspensions-if solid was still present it was analyzed by XRPD. The supernatant from the suspension was filtered and then the filtrates were then treated as the solutions above. In some experiments further solid was obtained from evaporation of the filtrates and was analyzed by XRPD where the quantity of material allowed.

[3] = as above; format: physicochemical; remark: listed apart in the source
[4] = Gravimetric Vapor Sorption (GVS) experiments; format: physicochemical
Protocol: Several Gravimetric Vapor Sorption (GVS) experiments were carried out to investigate the behavior of DAM over a range of different relative humidity levels. […] This experiment used a similar method to GVS 1 without the steps involving 90% RH where the large mass changes were observed and equilibrium was not reached. […] Most of the mass change (1.3-1.4% increase) occurred between 0-10% RH. […] It also loses mass when taken to relative humidity levels of less than 10%.

[5] = Particle size distribution; format: physicochemical
Description: The sample was highly crystalline.

[6] = format: physicochemical; details: for form by XRPD after storage: closed vial, 6 weeks
Description: It was then removed from the instrument and a portion immediately analyzed by XRPD. […]
A summary of the characterization data for the samples of Pattern 5 can be found in Table 9.

CC(=O)[O-].CC[N+](CC)(CC(=O)Nc1c(C)cccc1C)Cc1ccccc1 [DAM, denatonium acetate monohydrate]
form by XRPD after storage ([1]; 0% RH (open vial in GVS instrument, 2 days), acetate monohydrate): converted to Pattern 5; also recorded: consistent with Pattern 5; also recorded: change in form to Pattern 5 | form by XRPD after storage ([1]; 25° C., 96% RH, 7 days): Amorphous | form by XRPD after storage ([1]; 40° C., 75% RH, 7 days): Shows no change in form by XRPD after 7 days | Initial observation ([2]; ca. 10 mg in 1-Pentanol, 50 μL): Soluble | Initial observation ([2]; ca. 10 mg in 2-Butanol, 50 μL): Soluble | Initial observation ([2]; ca. 10 mg in 2-Ethoxyethanol, 25 μL): Soluble | Initial observation ([2]; ca. 10 mg in 2-Methoxyethanol, 25 μL): Soluble | Initial observation ([2]; ca. 10 mg in Acetic acid, 25 μL): Soluble | Initial observation ([2]; ca. 10 mg in Acetone, 1000 μL): Soluble | Initial observation ([2]; ca. 10 mg in Diisopropyl ether, 1000 μL): Suspension | Initial observation ([2]; ca. 10 mg in Dimethylsulfoxide, 100 μL): Solution | Initial observation ([2]; ca. 10 mg in Ethyl acetate, 1000 μL): Suspension | Initial observation ([2]; ca. 10 mg in Ethyl formate, 50 μL): Soluble | Initial observation ([2]; ca. 10 mg in MeCN + 5% water, 50 μL): Solution | Initial observation ([2]; ca. 10 mg in MeOH + 5% water, 25 μL): Solution | Initial observation ([2]; ca. 10 mg in Methylethyl ketone, 800 μL): Soluble | Initial observation ([2]; ca. 10 mg in Tetrahydrofuran, 1000 μL): Suspension | Initial observation ([3]; ca. 10 mg in 1,2-Dimethoxyethane, 1000 μL): Suspension | Initial observation ([3]; ca. 10 mg in 1,4-Dioxane, 1000 μL): Suspension | Initial observation ([3]; ca. 10 mg in 1-Butanol, 50 μL): Soluble | Initial observation ([3]; ca. 10 mg in 1-Propanol, 25 μL): Soluble | Initial observation ([3]; ca. 10 mg in 2-Methyl-1-Propanol, 50 μL): Soluble | Initial observation ([3]; ca. 10 mg in 2-Pentanone, 1000 μL): Suspension | Initial observation ([3]; ca. 10 mg in 2-Propanol, 50 μL): Soluble | Initial observation ([3]; ca. 10 mg in 3-Methyl-1-Butanol, 50 μL): Soluble | Initial observation ([3]; ca. 10 mg in 4-Methyl-2-pentanone, 1000 μL): Suspension | Initial observation ([3]; ca. 10 mg in Acetone + 5% water, 50 μL): Solution | Initial observation ([3]; ca. 10 mg in Acetonitrile, 200 μL): Soluble | Initial observation ([3]; ca. 10 mg in Anisole, 750 μL): Suspension | Initial observation ([3]; ca. 10 mg in Benzonitrile, 500 μL): Nearly all | Initial observation ([3]; ca. 10 mg in Benzyl alcohol, 25 μL): Solution | Initial observation ([3]; ca. 10 mg in Butyl acetate, 1000 μL): Suspension | Initial observation ([3]; ca. 10 mg in Chloroform, 50 μL): Soluble | Initial observation ([3]; ca. 10 mg in Cumene, 1000 μL): Suspension | Initial observation ([3]; ca. 10 mg in Diethyl ether, 1000 μL): Suspension | Initial observation ([3]; ca. 10 mg in EtOH + 5% water, 25 μL): Solution | Initial observation ([3]; ca. 10 mg in Ethanol, 25 μL): Soluble | Initial observation ([3]; ca. 10 mg in Formic acid, 25 μL): Soluble | Initial observation ([3]; ca. 10 mg in IPA + 5% water, 50 μL): Solution | Initial observation ([3]; ca. 10 mg in Isobutyl acetate, 1000 μL): Suspension | Initial observation ([3]; ca. 10 mg in Isopropyl acetate, 1000 μL): Suspension | Initial observation ([3]; ca. 10 mg in Methanol, 25 μL): Soluble | Initial observation ([3]; ca. 10 mg in Methyl acetate, 1000 μL): Suspension | Initial observation ([3]; ca. 10 mg in Methylbutyl ketone, 1000 μL): Suspension | Initial observation ([3]; ca. 10 mg in Pentane, 1000 μL): Suspension | Initial observation ([3]; ca. 10 mg in Propyl acetate, 1000 μL): Suspension | Initial observation ([3]; ca. 10 mg in Toluene, 1000 μL): Suspension | Initial observation ([3]; ca. 10 mg in Water, 20 μL): Soluble | Initial observation ([3]; ca. 10 mg in heptane, 1000 μL): Suspension | Initial observation ([3]; ca. 10 mg in t-Butanol, 100 μL): Soluble | Initial observation ([3]; ca. 10 mg in t-Butylmethyl ether, 1000 μL): Suspension | sample appearance after GVS ([4]; post GVS 1 (40-90-0-90-0-40)): sorption cycle. Sample had formed a solid mass with powdery | sample appearance after GVS ([4]; post GVS 2 (40-80-0-80-0-40), acetate monohydrate): remained as a free-flowing powder; also recorded: Sample remained free flowing solid | sample appearance after GVS ([4]; post GVS 3 (40-0-80-0-80-0-40), acetate monohydrate): remained as a free-flowing powder; also recorded: Sample remained free flowing solid | PSD D10 [5]: 1.62 μm | PSD D50 [5]: 23.09 μm

CC(=O)[O-].CC[N+](CC)(CC(=O)Nc1c(C)cccc1C)Cc1ccccc1 [Pattern 5]
form stability [6]: metastable | form after standing ([6]; ambient laboratory conditions, within a few hours): converts to Pattern 1 | form by XRPD after storage [6]: converted to Pattern 1 | form by XRPD after storage ([6]; listed as DAM Pattern 5): Conversion to Pattern 1 by XRPD | form by XRPD after standing ([6]; on XRPD disc at room temperature overnight): convert to Pattern 1; also recorded: reverted to Pattern 1 | form by XRPD after standing ([6]; on XRPD disc at room temperature overnight, listed as DAM Pattern 5): Conversion to Pattern 1 by XRPD | form by XRPD after standing ([6]; on XRPD disc, ambient laboratory conditions, 4 hours, listed as DAM Pattern 5): Conversion to Pattern 1 by XRPD
